Experimental data: ChEMBL document CHEMBL5050844 (2019)

Legend:
[1] = biological target: E3 ubiquitin-protein ligase CBL-B (Homo sapiens, UniProt Q13191); experiment: Inhibition of N-terminal Avi-tagged human CBL-B (36 to 427 residues) incubated with 60 nM Src kinase for 1.5 hrs followed by incubation with fluorescently labeled UbcH5B-Ub for 1 hr and measured by TR-FRET assay; format: single protein
[2] = Induction of anti-CD3 antibodies-stimulated human T cell activation at 1 uM assessed fold increase in CD25 expression measured by ELISA assay; format: functional, T cell line; also: reference of the scale not given here
[3] = Induction of anti-CD3 antibodies-stimulated human T cell activation at 8 uM assessed fold increase in IL-2 secretion measured by ELISA assay; format: functional, T cell line; also: reference of the scale not given here
[4] = Induction of anti-CD3/CD28 antibodies-stimulated human T cell activation at 4 uM assessed fold increase in CD25 expression measured by ELISA assay; format: functional, T cell line
[5] = Induction of anti-CD3 antibodies-stimulated human T cell activation at 1 uM assessed fold increase in IL-2 secretion measured by ELISA assay; format: functional, T cell line; also: reference of the scale not given here
[6] = Induction of anti-CD3/CD28 antibodies-stimulated human T cell activation at 0.3 uM assessed fold increase in IL-2 secretion measured by ELISA assay; format: functional, T cell line
[7] = Induction of anti-CD3/CD28 antibodies-stimulated human T cell activation at 1 uM assessed fold increase in CD25 expression measured by ELISA assay; format: functional, T cell line
[8] = Induction of anti-CD3 antibodies-stimulated human T cell activation at 8 uM assessed fold increase in CD25 expression measured by ELISA assay; format: functional, T cell line; also: reference of the scale not given here
[9] = Induction of anti-CD3/CD28 antibodies-stimulated human T cell activation at 1 uM assessed fold increase in IL-2 secretion measured by ELISA assay; format: functional, T cell line
[10] = Induction of anti-CD3/CD28 antibodies-stimulated human T cell activation at 4 uM assessed fold increase in IL-2 secretion measured by ELISA assay; format: functional, T cell line
[11] = Induction of anti-CD3/CD28 antibodies-stimulated human T cell activation at 0.3 uM assessed fold increase in CD25 expression measured by ELISA assay; format: functional, T cell line

Sequence of E3 ubiquitin-protein ligase CBL-B (Q13191 whole entry, the tested form may be a part): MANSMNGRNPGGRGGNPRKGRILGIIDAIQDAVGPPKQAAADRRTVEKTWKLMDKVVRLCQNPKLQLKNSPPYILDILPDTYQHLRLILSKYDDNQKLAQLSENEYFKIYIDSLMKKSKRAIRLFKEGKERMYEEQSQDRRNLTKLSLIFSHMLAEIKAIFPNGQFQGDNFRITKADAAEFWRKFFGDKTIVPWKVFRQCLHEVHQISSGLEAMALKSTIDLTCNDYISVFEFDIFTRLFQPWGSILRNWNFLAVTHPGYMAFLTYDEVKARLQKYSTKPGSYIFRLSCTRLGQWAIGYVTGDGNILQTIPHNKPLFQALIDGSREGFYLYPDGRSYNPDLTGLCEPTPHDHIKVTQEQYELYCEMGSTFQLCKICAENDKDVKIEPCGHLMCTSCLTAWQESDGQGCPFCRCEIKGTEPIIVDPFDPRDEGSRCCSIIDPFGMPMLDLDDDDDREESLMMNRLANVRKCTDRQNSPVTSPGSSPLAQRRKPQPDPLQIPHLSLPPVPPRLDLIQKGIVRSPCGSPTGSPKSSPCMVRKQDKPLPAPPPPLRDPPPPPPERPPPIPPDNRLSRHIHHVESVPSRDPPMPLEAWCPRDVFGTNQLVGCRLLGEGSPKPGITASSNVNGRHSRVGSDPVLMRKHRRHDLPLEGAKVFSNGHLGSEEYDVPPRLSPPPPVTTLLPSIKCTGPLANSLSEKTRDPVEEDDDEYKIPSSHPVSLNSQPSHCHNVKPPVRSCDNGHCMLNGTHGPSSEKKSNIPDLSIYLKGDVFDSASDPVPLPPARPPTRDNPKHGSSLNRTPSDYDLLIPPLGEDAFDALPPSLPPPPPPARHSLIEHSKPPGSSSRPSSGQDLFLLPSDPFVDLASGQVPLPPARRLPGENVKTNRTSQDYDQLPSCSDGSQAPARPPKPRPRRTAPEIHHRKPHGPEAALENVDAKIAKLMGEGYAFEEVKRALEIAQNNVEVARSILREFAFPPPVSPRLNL

| SMILES | IC50 [1] | fold change (FC) [2] | fold change (FC) [3] | fold change (FC) [4] | fold change (FC) [5] | fold change (FC) [6] | fold change (FC) [7] | fold change (FC) [8] | fold change (FC) [9] | fold change (FC) [10] | fold change (FC) [11] |
| --- | --- | --- | --- | --- | --- | --- | --- | --- | --- | --- | --- |
| Cn1cnnc1[C@H](F)C(C)(F)c1cccc(N2Cc3c(cccc3C(F)(F)F)C2=O)c1 (single isomer, unassigned) | < 100 nM | 0.601 | 0.101 | 1.01 | <=0.05 | 1.01 | 1.01 | 0.801 | 1.01 | 1.01 | 1.01 |
| C[C@H](Cc1nncn1C)c1cccc(NC(=O)c2ccnc3ccnn23)c1 | < 100 nM | 0.801 | 0.101 | 1.01 | 0.051 | 1.01 | 1.01 | >=1.001 | 1.01 | 2.51 | 1.01 |
| Cn1cnnc1C(F)(F)[C@](C)(F)c1cccc(N2Cc3c(cc(CN4CC(C(F)F)C4)cc3C(F)(F)F)C2=O)c1 | < 100 nM | >=1.001 | 0.151 | 1.31 | >=0.201 | 5 | 1.31 | >=1.001 | >=7.5 | >=7.5 | 1.31 |
| Cn1cnnc1CC1(c2cccc(N3Cc4c(cccc4C(F)(F)F)C3=O)c2)CC1 | < 100 nM | >=1.001 | >=0.201 | 1.01 | 0.051 | 2.51 | 1.01 | >=1.001 | 2.51 | 5 | <=1 |
| C[C@H](Sc1nncn1C)c1cccc(NC(=O)c2ccnc(C3CC3)n2)c1 | < 100 nM | 0.601 | 0.051 | 1.31 | <=0.05 | <=1 | 1.01 | >=1.001 | 2.51 | 5 | 1.01 |
| C[C@H](Cc1nncn1C)c1cccc(N2Cc3c(cc([C@H]4CCCNC4)cc3C(F)(F)F)C2=O)c1 (single isomer, unassigned) | < 100 nM | 0.801 | >=0.201 | 1.51 | >=0.201 | 2.51 | 1.51 | >=1.001 | 5 | >=7.5 | 1.31 |
| Cn1cnnc1[C@@H]1C[C@@H]1c1cccc(N2Cc3c(cc(CN4CC[C@H](F)C4)cc3C(F)(F)F)C2=O)c1 | < 100 nM | >=1.001 | >=0.201 | 1.51 | >=0.201 | 2.51 | 1.31 | >=1.001 | >=7.5 | >=7.5 | 1.31 |
| CC(=O)N1CCN(c2ccc3cnc(C(=O)Nc4cccc([C@H](C)Cc5nncn5C)c4)cc3c2)CC1.O=C(O)C(F)(F)F | < 100 nM | 0.601 | >=0.201 | 1.51 | >=0.201 | 2.51 | 1.01 | >=1.001 | 5 | >=7.5 | 1.01 |
| Cc1cc(C(=O)Nc2cccc([C@H](C)Sc3nncn3C)c2)nc(C(F)(F)F)c1 | < 100 nM | 0.601 | 0.101 | 1.01 | <=0.05 | 1.01 | 1.01 | >=1.001 | 1.01 | 2.51 | 1.01 |

More lines, main results first:

| IC50 [1] | SMILES | fold change (FC) [2] | fold change (FC) [3] | fold change (FC) [4] | fold change (FC) [5] | fold change (FC) [6] | fold change (FC) [7] | fold change (FC) [8] | fold change (FC) [9] | fold change (FC) [10] | fold change (FC) [11] |
| --- | --- | --- | --- | --- | --- | --- | --- | --- | --- | --- | --- |
| < 100 nM | C[C@H](Cc1nncn1C)c1cccc(N2Cc3c(cc([C@H](C)N4CC(O)C4)cc3C(F)(F)F)C2=O)c1 | >=1.001 | >=0.201 | 1.31 | >=0.201 | 5 | 1.31 | >=1.001 | >=7.5 | >=7.5 | 1.01 |
| < 100 nM | C[C@@H](c1cc2c(c(C(F)(F)F)c1)CN(c1cccc(C3(Cc4nncn4C)COC3)c1)C2=O)N1CCC(F)(F)C1 | >=1.001 | >=0.201 | 1.31 | 0.151 | 2.51 | 1.31 | >=1.001 | >=7.5 | >=7.5 | 1.31 |
| < 100 nM | C[C@H](c1cc2c(c(C(F)(F)F)c1)CN(c1cccc(C3(Cc4nncn4C)COC3)c1)C2=O)N1CCC(F)(F)C1 | >=1.001 | >=0.201 | 1.31 | 0.151 | 2.51 | 1.31 | >=1.001 | >=7.5 | >=7.5 | 1.01 |
| < 100 nM | C[C@H](Cc1nncn1C)c1cccc(N2Cc3c(cc(C(C)(C)O)cc3C(F)(F)F)C2=O)c1 | >=1.001 | 0.151 | 1.31 | 0.101 | >=7.5 | 1.01 | 0.801 | 2.51 | 5 | >=1.76 |
| < 100 nM | C[C@H](Cc1nncn1C)c1cccc(NC(=O)c2cccc(C(C)(C)C)n2)c1 | 0.801 | >=0.201 | 1.01 | 0.051 | 1.01 | 1.01 | >=1.001 | 2.51 | 2.51 | 1.01 |
| < 100 nM | C[C@H](Cc1nncn1C)c1cccc(N2Cc3c(cc(C4CC4)cc3C(F)(F)F)C2=O)c1 | 0.801 | >=0.201 | 1.31 | >=0.201 | 1.01 | 1.01 | >=1.001 | 1.01 | 2.51 | 1.01 |
| < 100 nM | Cn1cnnc1CC(C)(C)c1cccc(N2Cc3c(cccc3C(F)(F)F)C2=O)c1 | 0.801 | >=0.201 | 1.51 | >=0.201 | 1.01 | 1.01 | >=1.001 | 2.51 | >=7.5 | 1.01 |
| < 100 nM | Cn1cnnc1CC1(c2cccc(N3Cc4c(cc(CN5CC(C)(F)C5)cc4C(F)(F)F)C3=O)c2)COC1 | >=1.001 | >=0.201 | 1.51 | >=0.201 | >=7.5 | 1.51 | >=1.001 | >=7.5 | >=7.5 | 1.31 |
| < 100 nM | C[C@H](Cc1nncn1C)c1cccc(NC(=O)c2cc(O[C@@H]3CC[C@@H](O)C3)ccn2)c1 (relative stereo) | 0.801 | 0.101 | 1.31 | 0.051 | 2.51 | 1.01 | >=1.001 | 2.51 | 5 | 1.01 |
| < 100 nM | C[C@H](Cc1nncn1C)c1cc(OCC(F)F)nc(N2Cc3c(cccc3C(F)(F)F)C2=O)c1 | 0.801 | >=0.201 | 1.31 | 0.151 | 2.51 | 1.01 | >=1.001 | 2.51 | >=7.5 | 1.01 |
